Reference: publication PMC9851200, “Multiparameter phenotypic screening for endogenous TFEB and TFE3 translocation identifies novel chemical series modulating lysosome function” (Autophagy, 2022)

What was measured:
Format in all cases: binding
[1] = target: T1, kinases (KINOMEscan panel) (Homo sapiens, UniProt O14976); details: kinase GAK; NEW KINOMEscan
T1 sequence (O14976 1-1311): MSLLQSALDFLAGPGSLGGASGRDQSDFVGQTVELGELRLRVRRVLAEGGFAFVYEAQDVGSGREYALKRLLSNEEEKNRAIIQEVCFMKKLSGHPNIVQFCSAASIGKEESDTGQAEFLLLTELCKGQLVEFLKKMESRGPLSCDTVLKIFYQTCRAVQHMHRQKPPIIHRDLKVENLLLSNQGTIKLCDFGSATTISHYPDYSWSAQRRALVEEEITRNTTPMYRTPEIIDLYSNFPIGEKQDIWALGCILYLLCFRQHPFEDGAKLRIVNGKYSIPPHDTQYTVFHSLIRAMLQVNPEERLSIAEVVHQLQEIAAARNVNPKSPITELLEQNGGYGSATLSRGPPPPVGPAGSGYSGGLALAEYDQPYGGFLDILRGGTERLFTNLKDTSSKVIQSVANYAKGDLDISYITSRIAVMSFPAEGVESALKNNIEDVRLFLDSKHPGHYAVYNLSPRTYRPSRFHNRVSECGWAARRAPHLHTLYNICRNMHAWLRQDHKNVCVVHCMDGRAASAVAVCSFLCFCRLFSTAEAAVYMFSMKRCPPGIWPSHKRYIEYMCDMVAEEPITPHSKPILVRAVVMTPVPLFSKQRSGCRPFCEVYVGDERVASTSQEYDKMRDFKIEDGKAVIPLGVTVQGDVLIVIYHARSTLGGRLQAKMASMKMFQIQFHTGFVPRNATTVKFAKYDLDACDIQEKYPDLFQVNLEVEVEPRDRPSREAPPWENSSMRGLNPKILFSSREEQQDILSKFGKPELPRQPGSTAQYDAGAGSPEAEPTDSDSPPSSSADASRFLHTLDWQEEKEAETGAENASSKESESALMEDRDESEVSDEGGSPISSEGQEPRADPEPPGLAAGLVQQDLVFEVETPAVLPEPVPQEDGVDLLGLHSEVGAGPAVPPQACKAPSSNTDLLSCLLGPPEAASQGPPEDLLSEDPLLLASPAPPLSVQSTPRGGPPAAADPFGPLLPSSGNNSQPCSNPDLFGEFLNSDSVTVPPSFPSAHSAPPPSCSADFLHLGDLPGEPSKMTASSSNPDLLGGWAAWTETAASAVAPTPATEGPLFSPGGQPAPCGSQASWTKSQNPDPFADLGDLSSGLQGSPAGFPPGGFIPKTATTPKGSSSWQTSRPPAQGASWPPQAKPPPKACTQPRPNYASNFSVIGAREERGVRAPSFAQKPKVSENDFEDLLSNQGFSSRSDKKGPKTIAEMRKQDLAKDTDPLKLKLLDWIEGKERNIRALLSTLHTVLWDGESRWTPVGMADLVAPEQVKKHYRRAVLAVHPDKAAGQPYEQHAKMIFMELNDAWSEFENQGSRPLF

[2] = target: kinases (KINOMEscan panel) (Homo sapiens, UniProt O15264)
Chain of kinases (KINOMEscan panel) (Homo sapiens, UniProt O15264) (O15264 whole entry): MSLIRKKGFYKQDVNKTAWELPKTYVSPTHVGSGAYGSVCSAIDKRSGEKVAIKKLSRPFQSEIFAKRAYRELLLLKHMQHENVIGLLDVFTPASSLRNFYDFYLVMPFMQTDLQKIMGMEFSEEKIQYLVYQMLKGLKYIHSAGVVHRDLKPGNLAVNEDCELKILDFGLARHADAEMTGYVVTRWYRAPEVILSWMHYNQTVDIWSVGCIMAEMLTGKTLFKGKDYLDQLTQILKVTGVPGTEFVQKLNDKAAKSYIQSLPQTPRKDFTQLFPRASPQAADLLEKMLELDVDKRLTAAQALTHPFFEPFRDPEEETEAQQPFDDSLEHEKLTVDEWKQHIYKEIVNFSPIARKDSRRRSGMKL

[3] = target: kinases (KINOMEscan panel) (Homo sapiens, UniProt P00533, DEL752-759); details: EGFR(S752-I759del); NEW KINOMEscan
Chain of kinases (KINOMEscan panel) (Homo sapiens, UniProt P00533, DEL752-759) (P00533 with tags, fused parts or gaps DEL752-759): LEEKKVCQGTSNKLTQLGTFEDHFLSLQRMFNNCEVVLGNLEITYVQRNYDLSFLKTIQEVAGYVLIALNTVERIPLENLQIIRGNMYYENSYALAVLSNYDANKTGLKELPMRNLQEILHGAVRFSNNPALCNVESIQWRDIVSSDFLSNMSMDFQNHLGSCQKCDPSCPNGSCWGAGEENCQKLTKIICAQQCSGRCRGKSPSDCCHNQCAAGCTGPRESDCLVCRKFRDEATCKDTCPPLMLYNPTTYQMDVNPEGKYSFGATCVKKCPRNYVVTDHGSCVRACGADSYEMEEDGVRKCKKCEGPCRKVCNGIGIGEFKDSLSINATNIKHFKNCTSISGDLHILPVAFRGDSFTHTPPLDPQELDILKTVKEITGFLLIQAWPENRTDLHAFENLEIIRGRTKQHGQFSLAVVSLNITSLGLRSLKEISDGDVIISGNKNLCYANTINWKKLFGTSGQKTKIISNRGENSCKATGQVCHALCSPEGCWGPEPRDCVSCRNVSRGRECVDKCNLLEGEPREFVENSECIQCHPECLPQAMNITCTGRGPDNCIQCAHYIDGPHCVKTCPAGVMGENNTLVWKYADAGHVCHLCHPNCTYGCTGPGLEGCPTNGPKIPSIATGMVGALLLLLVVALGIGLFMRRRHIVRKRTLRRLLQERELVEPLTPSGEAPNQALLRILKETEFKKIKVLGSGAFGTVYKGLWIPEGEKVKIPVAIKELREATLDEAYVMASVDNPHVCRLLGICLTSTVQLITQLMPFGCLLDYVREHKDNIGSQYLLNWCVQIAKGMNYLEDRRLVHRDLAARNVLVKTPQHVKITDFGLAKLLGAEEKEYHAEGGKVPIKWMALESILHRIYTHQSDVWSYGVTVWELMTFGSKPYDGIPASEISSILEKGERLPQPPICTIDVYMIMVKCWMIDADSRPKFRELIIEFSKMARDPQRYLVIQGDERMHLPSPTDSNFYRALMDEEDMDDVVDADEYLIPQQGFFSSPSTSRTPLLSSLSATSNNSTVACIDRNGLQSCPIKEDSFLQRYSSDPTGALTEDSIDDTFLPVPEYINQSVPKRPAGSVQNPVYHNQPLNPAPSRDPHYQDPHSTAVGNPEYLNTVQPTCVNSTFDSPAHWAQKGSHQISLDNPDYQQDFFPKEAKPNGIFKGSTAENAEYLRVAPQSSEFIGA

[4] = target: kinases (KINOMEscan panel) (Homo sapiens, UniProt P08922); details: kinase ROS1; NEW KINOMEscan
Chain of kinases (KINOMEscan panel) (Homo sapiens, UniProt P08922) (P08922 28-2347): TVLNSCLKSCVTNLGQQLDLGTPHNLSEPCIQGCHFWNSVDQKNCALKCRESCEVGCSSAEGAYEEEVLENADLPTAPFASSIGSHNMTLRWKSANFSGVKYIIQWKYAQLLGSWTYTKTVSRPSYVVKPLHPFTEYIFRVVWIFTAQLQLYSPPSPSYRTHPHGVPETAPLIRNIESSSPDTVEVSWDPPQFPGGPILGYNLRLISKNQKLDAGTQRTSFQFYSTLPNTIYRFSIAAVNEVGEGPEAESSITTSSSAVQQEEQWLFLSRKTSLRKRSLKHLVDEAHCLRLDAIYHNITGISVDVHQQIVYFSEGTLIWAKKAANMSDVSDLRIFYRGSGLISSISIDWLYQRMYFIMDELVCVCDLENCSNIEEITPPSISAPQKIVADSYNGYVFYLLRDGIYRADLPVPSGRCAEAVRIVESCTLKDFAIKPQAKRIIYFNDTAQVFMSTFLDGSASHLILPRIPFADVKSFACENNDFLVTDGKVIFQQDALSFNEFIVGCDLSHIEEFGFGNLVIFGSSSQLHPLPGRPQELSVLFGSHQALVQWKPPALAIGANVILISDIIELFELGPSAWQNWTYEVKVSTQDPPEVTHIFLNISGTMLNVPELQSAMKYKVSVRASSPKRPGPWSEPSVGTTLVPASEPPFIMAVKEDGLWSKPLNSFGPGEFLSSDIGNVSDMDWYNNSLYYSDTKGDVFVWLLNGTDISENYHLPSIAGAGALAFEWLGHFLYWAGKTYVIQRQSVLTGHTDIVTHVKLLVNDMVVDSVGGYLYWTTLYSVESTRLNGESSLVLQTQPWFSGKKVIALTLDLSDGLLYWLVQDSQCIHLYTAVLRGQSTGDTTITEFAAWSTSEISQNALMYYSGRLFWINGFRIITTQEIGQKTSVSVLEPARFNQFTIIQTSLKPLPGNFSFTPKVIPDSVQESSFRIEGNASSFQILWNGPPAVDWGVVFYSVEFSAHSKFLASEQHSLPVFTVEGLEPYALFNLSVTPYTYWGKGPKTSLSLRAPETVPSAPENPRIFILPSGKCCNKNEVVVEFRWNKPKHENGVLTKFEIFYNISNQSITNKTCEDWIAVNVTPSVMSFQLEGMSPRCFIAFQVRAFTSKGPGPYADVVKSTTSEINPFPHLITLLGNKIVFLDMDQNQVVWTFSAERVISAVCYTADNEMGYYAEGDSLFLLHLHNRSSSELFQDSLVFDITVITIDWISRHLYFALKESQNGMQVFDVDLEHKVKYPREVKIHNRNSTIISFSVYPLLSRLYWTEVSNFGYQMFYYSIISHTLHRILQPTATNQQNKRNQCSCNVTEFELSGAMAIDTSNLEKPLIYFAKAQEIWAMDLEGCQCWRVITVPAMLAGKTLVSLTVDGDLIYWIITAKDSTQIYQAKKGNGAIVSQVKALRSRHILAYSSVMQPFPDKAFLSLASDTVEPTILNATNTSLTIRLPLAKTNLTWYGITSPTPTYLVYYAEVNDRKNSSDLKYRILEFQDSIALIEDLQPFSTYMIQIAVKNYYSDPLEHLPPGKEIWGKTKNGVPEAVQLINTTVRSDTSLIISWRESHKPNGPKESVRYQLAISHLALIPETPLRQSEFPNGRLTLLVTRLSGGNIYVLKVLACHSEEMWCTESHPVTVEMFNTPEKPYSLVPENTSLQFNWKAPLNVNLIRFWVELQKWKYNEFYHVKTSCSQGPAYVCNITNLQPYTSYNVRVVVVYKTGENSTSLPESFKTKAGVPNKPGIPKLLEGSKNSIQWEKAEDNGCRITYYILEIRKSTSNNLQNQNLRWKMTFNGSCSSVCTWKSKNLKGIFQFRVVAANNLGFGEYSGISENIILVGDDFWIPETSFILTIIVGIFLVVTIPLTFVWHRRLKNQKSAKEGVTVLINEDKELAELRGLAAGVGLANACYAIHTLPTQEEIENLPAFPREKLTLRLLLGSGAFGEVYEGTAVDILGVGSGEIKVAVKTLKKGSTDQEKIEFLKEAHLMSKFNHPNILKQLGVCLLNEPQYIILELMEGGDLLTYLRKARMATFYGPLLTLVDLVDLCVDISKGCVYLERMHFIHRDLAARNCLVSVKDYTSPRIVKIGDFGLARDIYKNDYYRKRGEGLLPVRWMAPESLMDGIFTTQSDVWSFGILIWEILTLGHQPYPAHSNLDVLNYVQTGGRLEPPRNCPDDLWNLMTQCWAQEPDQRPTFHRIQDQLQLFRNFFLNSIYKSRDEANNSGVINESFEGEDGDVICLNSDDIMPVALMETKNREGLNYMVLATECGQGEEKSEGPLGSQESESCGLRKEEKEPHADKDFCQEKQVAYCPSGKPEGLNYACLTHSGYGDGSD

[5] = target: T2, kinases (KINOMEscan panel) (Homo sapiens, UniProt P15735); details: kinase PHKG2; NEW KINOMEscan
T2 sequence (P15735 1-406): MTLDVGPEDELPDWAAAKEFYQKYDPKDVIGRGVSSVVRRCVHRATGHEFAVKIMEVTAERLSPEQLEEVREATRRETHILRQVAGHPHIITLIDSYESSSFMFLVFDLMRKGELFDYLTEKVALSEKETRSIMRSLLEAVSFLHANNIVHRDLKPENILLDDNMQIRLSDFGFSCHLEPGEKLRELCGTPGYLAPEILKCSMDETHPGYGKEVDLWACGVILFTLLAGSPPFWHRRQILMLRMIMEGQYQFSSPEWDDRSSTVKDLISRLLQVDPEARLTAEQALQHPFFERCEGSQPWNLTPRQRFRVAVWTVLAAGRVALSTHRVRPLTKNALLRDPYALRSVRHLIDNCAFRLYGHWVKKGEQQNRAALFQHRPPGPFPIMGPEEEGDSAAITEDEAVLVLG

[6] = target: kinases (KINOMEscan panel) (Homo sapiens, UniProt P42338); details: PIK3CB; NEW KINOMEscan
Chain of kinases (KINOMEscan panel) (Homo sapiens, UniProt P42338) (P42338 whole entry): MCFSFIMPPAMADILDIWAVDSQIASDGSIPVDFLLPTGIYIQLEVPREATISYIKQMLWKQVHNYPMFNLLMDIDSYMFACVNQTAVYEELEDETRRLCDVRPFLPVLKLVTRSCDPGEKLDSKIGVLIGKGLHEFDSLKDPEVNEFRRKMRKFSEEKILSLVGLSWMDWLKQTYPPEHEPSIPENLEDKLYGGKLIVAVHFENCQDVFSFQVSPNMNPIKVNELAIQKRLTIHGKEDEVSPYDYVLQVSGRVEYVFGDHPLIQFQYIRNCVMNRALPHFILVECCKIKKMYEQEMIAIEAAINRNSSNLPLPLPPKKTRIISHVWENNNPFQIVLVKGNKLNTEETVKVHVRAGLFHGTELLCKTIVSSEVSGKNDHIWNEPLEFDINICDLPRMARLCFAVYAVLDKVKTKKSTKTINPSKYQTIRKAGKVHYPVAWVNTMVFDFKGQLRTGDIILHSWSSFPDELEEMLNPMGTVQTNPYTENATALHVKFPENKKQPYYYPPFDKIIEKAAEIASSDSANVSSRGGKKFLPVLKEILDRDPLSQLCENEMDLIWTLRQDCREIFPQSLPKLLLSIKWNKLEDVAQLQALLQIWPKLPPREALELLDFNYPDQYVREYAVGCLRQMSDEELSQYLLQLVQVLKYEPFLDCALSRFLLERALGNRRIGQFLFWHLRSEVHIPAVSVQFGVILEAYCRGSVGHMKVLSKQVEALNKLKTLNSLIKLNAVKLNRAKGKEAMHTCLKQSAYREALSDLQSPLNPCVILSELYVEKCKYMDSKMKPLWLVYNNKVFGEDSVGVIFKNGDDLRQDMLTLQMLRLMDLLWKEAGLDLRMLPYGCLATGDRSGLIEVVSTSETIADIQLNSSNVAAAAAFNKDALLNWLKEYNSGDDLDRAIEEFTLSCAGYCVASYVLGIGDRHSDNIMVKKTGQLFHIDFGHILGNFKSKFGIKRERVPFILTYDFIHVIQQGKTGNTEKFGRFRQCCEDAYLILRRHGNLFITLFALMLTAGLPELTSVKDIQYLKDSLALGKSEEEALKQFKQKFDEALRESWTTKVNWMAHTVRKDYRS

[7] = target: kinases (KINOMEscan panel) (Homo sapiens, UniProt P53350); details: PLK1; NEW KINOMEscan
[8] = target: kinases (KINOMEscan panel) (Homo sapiens, UniProt Q5VT25)
[9] = target: kinases (KINOMEscan panel) (Homo sapiens, UniProt Q96NX5); details: CAMK1G; NEW KINOMEscan

Row | SMILES | KINOMEscan GAK [1] | KINOMEscan MAPK13/p38-delta [2] | KINOMEscan EGFR(S752-I759del) [3] | KINOMEscan ROS1 [4] | KINOMEscan PHKG2 [5] | KINOMEscan PIK3CB [6] | KINOMEscan PLK1 [7] | KINOMEscan CDC42BPA/MRCKA [8] | KINOMEscan CAMK1G [9]
1 | Cc1cccc(-c2nc(Nc3ccc4nn(C)cc4c3)c3ccccc3n2)n1 [NK167] | 0 | 0 | 0 | 0 | 0 | 0 | 0 | 0 | 0
2 | Cc1cccc(-c2nc(N(C)c3ccc4ncsc4c3)c3ccccc3n2)n1 [NK-161] | 0 | 6 | 0 | 0 | 0 | 0 | 4 | 5 | 0
